Values after ≈ are worked out from the molar mass of the structure shown. Values joined by “and” are separate entries in the source; they are usually repeats but may differ in a detail not shown here. Identical values can stand only once. “Also recorded” adds a separate entry of the source. Like-named read-outs stand apart in the source and are kept apart here.
How the values were obtained:
Vero cells = assay: Cytotoxicity on Vero cells, MTT assay; type: cell-based; details: 1 µg/mL, 24 h; not shown
[1] = system: Trypanosoma cruzi cell-derived trypomastigotes; assay: Activity on cell-derived trypomastigotes at 4 °C, 24 h, MTT assay; type: cell-based, T. cruzi clone Dm28c; details: for Selectivity index (SI) - Vero cells: Table II, CC50 Vero cells / IC50 cell-derived trypomastigotes (4 °C); for IC50: Trypanosoma cruzi
red blood cells (RBCs) = assay: Cytotoxicity on red blood cells at 4 °C; type: cell-based, human; details: CC50 RBCs (4 °C) / IC50 cell-derived trypomastigotes (4 °C)
Experimental: (§1) To analyse cytotoxicity on red blood cells (RBCs) at 4 °C, human erythrocytes were obtained from 10-mL blood samples (O+), from a healthy volunteer donor, as previously described ([Izumi et al. 2012]). After collection, blood was […] and then washed with a sterile ‘saline-glucose’ solution (0.85% NaCl/5% glucose). The final pellet was diluted in saline-glucose and centrifuged for 5 min at 1400 g. The supernatant was discarded and the pellet of RBCs was diluted in saline-glucose, for a final concentration of 6%. […] Negative control samples represented untreated RBCs diluted in saline-glucose. After treatment, plates were centrifuged at 1027 g for 2 min, and 100 µL of supernatant from each well were transferred to a new plate and analysed (at 550 nm) in an EL800 microplate reader (Biotek, Winooski, VT, USA). Cytotoxicity (CC50) values were calculated using Excel, and selectivity index (SI) values were calculated as the ratio between the CC50/24 h (for Vero cells or RBCs) and IC50/24 h values.

[2] = system: Trypanosoma cruzi cell-derived trypomastigotes; assay: PaEO activity on cell-derived trypomastigotes at 28 °C, 24 h, cell counting; type: cell-based, T. cruzi clone Dm28c
Experimental: To obtain cell-derived trypomastigotes, Vero cells were incubated with cell-derived trypomastigotes (1:10 ratio of cells to parasites) in 75 cm^2 culture flasks containing 8 mL DMEM. After 4 h of interaction, non-internalised parasites were removed by rinsing with phosphate-buffered saline (PBS), new medium was added, and then changed to fresh medium every 24 h. After 96 h of infection, trypomastigotes released into the supernatant were collected by centrifugation at 3000 g for 10 min.
PaEO activity assays with cell-derived trypomastigotes were performed at 28 °C and 4 °C. […]

[3] = system: Trypanosoma cruzi epimastigotes; assay: PaEO activity on epimastigotes at 28 °C, 24 h, MTT assay; type: cell-based, T. cruzi clone Dm28c
Experimental: (§2) Parasites - In this work, we used the T. cruzi clone Dm28c. Epimastigote forms were kept at 28 °C in LIT medium supplemented with 10% inactivated FCS, with passages at every three days. For the experiments, parasites obtained from 72-h cultures were used.
(§3) Single drug activity assays on T. cruzi developmental forms - All experiments were performed in biological and technical triplicates. Incubations were performed for 24 h in all bioassays. The absorbance of untreated cells in culture media containing 0.5% DMSO (control) was used as 100% cell viability, and the percentage of dead cells in each treatment was estimated by comparison with the untreated control.
(§4) For all assays, IC50/24 h values (based on cell counting, MTT data or infection index values) and dose-response curves were generated using the CompuSyn software (ComboSyn Inc., Paramus, NJ, USA), and statistical analysis was performed in Excel. For all assays, the fraction of affected cells (Fa) was calculated relative to the untreated control (treated/untreated ratio).
To test the activity of PaEO on epimastigote forms, these cells were seeded into 96-well plates (5 x 10^6 cells/well) in LIT medium, and treated for 24 h at 28 °C with PaEO at the final concentrations of 9, 18, 37, 75, 150 and 300 µg/mL. […] Cell viability was assessed by the MTT assay (see “MTT assay”). […]

[4] = Cytotoxicity on Vero cells, MTT assay; type: cell-based; details: African green monkey, Vero cells (ATCC CCL-81), Vero cells
Experimental: MTT assay - After drug treatments, MTT solution (10 mg/mL in PBS) was added to each well for a final concentration of 2.5 mg/mL (or 1 mg/mL for trypomastigotes). Plates were incubated for 3 h at 28 °C in the dark, centrifuged for 10 min at 475 g and the supernatant was removed (by quick plate reversal). Then, 20 µL SDS was added to each well, followed by incubation for 1 h at 28 °C, after which 80 µL DMSO was added to each well and incubated for a further 1 h at 28 °C. Finally, the residual material was removed with the aid of a toothpick, and sample absorbance (at 550 nm) was read in an EL800 microplate reader (Biotek, Winooski, VT, USA). Dose-response curves were produced using the CompuSyn software, which was also used to calculate IC50/24 values.
Cytotoxicity - Vero cells were seeded in 96-well plates (2 x 10^4 cells/well) with RPMI-1640 medium and cultivated for 24 h at 37 °C (5% CO2). […] Then, plates were subjected to the MTT assay as described above (see “MTT assay”), and MTT data were used to calculate 50% cytotoxicity (CC50/24 h) values. Plates were examined in an inverted microscope every 12 h, to evaluate monolayer integrity (confluence and adhesion).

[5] = system: Trypanosoma cruzi metacyclic trypomastigotes; assay: PaEO activity on metacyclic trypomastigotes at 28 °C, 24 h, cell counting; type: cell-based, T. cruzi clone Dm28c
Experimental: as §2
To obtain metacyclic trypomastigotes, culture epimastigotes in late logarithmic growth phase (five days) were subjected to nutritional stress as described previously ([Contreras et al. 1985]). […]
as §3, with “Incubations were performed for 24 h in all bioassays.” left out
as §4, with “ratio). […]” for “ratio).”

Chagas disease = details: cited from earlier work; for Treatment efficacy: ref Rassi et al. 2009
[6] = system: Trypanosoma cruzi intracellular amastigotes; assay: PaEO activity against intracellular amastigotes in Vero cells, 37 °C, 24 h, infection index; type: cell-based; details: for Amastigotes per cell / Infected cells (%): Vero cells; for Infection index (II): II = % infected cells x amastigotes per cell
Experimental: Vero cells - Vero cells (ATCC CCL-81) were grown in RPMI-1640 medium with L-glutamine (Sigma Aldrich, St. Louis, MO, USA), supplemented with 5% fetal calf serum (FCS; Cultilab, Campinas, SP, Brazil), at 37 °C, and in a humidified 5% CO2 atmosphere. For seeding, cell monolayers were washed twice with PBS (pH 7.2), trypsinized and collected by centrifugation at 100 g for 2 min.
as §2, §3, §4
To test PaEO activity against intracellular amastigotes, Vero cells were seeded in 24-well plates (2 x 10^4 cells/well) in DMEM (Sigma-Aldrich), and allowed to adhere for 24 h. Then, cell-derived trypomastigotes were added to each well (1:10 ratio of cells to parasites), incubated for 3 h, and non-internalised parasites were removed by washing with PBS. Infected cultures were incubated for 24 h (at 37 °C, 5% CO2), and then the culture medium was replaced with RPMI-1640 containing PaEO or BZ at final concentrations between 1 and 100 µg/mL (total volume of 1 mL/well), and plates were incubated for 24 h, at 37 °C (5% CO2). Treated cells were fixed with methanol, stained with Giemsa, and the inhibitory effect on intracellular amastigotes was estimated by counting (a) the number of infected cells, and (b) the number of amastigotes per cell, in 100 cells/wells, from random light microscopy images.

[7] = Cytotoxicity on red blood cells at 4 °C; type: cell-based, human; details: red blood cells (erythrocytes); human RBCs, 4 °C
Experimental: as §1

[8] = system: T. cruzi blood trypomastigotes (Y strain); design: method as in Santoro et al. 2007b; details: ref Santoro et al. 2007b; cited from earlier work
[9] = Trypanosoma cruzi, 24 h, read-out: IC50/24 h
[10] = 37 °C, read-out: Vero cells CC50/24 h

## C=CC(C)(O)CCC=C(C)CCC=C(C)C (mixture of isomers) [nerolidol]
Vero cells
  Integrity of Vero cell monolayers: did not affect the integrity; also recorded: remained intact
[1]; 100 ng/mL to 1 µg/mL, 4 °C, 24 h, data not shown
  Trypanocidal activity (light microscopy and MTT): no appreciable trypanocidal activity; also recorded: failed to affect significantly

## CN(C)c1ccc(C(=C2C=CC(=[N+](C)C)C=C2)c2ccc(N(C)C)cc2)cc1 [Gentian Violet, gentian violet]
Red blood cells (RBCs)
  Selectivity index (SI) - RBCs: > 2.8
[1]
  Selectivity index (SI) - Vero cells: 2.9

## O=C(Cn1ccnc1[N+](=O)[O-])NCc1ccccc1 [BZ, Benznidazole]
[2]; CC50 on Vero cells / IC50, cell-derived trypomastigotes 28 °C
  Selectivity index (SI): 63.4
[2]; [9]
  IC50: 16.1 µg/mL (≈ 61.9 µM)
[3]; CC50 on Vero cells / IC50, epimastigotes 28 °C
  Selectivity index (SI): 69.4
[3]; [9]
  IC50: 45 µM and 14.7 µg/mL
[4]; [10]
  CC50 at 24 h: > 1000 µg/mL
[5]; CC50 on Vero cells / IC50, metacyclic trypomastigotes 28 °C
  Selectivity index (SI): 3,646.4
[5]; [9]
  IC50: 0.3 µg/mL (≈ 1.15 µM)
Chagas disease; acute phase of the disease
  Treatment efficacy: approximately 80%
Chagas disease; chronic phase of the disease
  Treatment efficacy: ~20%
Chagas disease; ref Bern 2011
  Treatment discontinuation due to side effects: 7-13 % of cases
[6]; 10 µg/mL, 24 h
  II decrease: 81.3%
  Amastigotes per cell: 2.5
  Infected cells (%): 74.9%
  Infection index (II): 187.2
[6]; 50 µg/mL, 24 h
  II decrease: 99.9%
  Amastigotes per cell: 0.9
  Infected cells (%): 0.4%
  Infection index (II): 0.3
[6]; CC50 on Vero cells / IC50, amastigotes 37 °C
  Selectivity index (SI): 1,276.2
[6]; Trypanosoma cruzi, Vero, 24 h, read-out: IC50/24 h
  IC50: 0.8 µg/mL (≈ 3.07 µM)

## C=CC(C)(O)CCC=C(C)C (centres unmarked) [Linalool, linalool]
Red blood cells (RBCs)
  Selectivity index (SI) - RBCs: 23,990
[7]
  CC50 at 24 h: 7340 µg/mL (≈ 47600 µM)
[4]; [10]
  CC50 at 24 h: 0.87 µg/mL (≈ 5.64 µM)
[4]; b44 prints at 4 °C, read-out: CC50/24 h
  CC50 at 24 h: 0.824 µg/mL (≈ 5.34 µM)
[8]
  IC50/24 h: 264 µg/mL (≈ 1710 µM)
[1]
  Selectivity index (SI) - Vero cells: 2.7
[1]; listed as linalool
  Selectivity index (SI) - Vero cells: 2.69
[1]; cell-derived trypomastigotes, 4 °C, 24 h, read-out: IC50/24 h
  IC50: 0.306 µg/mL (≈ 1.98 µM)
[1]; cell-derived trypomastigotes, 4 °C, 24 h, read-out: T. cruzi IC50/24 h
  IC50: 0.31 µg/mL (≈ 2.01 µM)
[1]; cell-derived trypomastigotes, 4 °C
  Times more efficient than gentian violet: approximately 80,000 times
[1]; linalool at 4 °C vs BZ at 28 °C, cell-derived trypomastigotes
  Times more effective than BZ at 28ºC: approximately 52 times

Reference: PMC5293122, “Linalool, a Piper aduncum essential oil component, has selective activity against Trypanosoma cruzi trypomastigote forms at 4°C” (Memórias do Instituto Oswaldo Cruz, 2017)
